“Also recorded” adds a separate entry of the source.
Key:
[1] = tested on: Calu3 airway epithelial cells; experiment: LPS-induced IL-8 release by Calu3 cells (ELISA); type: cell-based, human; conditions: Calu3 cells exposed to LPS for 48 hrs
Experimental: Mouse models were performed according to the previous example. For investigating mucus, IL-8 release, and leukocytes, tissues were fixed using 4% paraformaldehyde (PFA), 0.2% picric acid and 3.4% sucrose in PBS and washed in methanol before embedding in paraffin. Mucus was analyzed using standard Periodic acid-Schiff (PAS) or alcian blue staining. MUC5AC was stained using anti-MUC5AC mouse antibody (1:200, Abcam, ab3649) and a secondary antibody conjugated with Alexa488 (Life Technologies, A-21206). Nuclei were stained with Hoe33342 (0.1 μg/ml PBS, Aplichem, Darmstadt, Germany). Quantikine ELISA kits (R&D systems) were used to measure secretion of the cytokine IL-8 by Calu3 cells.
Calu3 airway epithelial cells were exposed to LPS for 48 hrs and the release of the neutrophil attractor interleukin 8 (IL-8) was measured. […] Upon stimulation with the Th2 cytokine IL-13, Calu3 cells produced MUC5AC. […] Taken together, airway epithelial knockout of TMEM16A caused a defect in mucus secretion, while mucus production was retained (FIG. 16C).

[2] = target: T1, TMEM16F (Homo sapiens, UniProt Q4KMQ2); experiment: Whole cell currents in HEK293 cells expressing TMEM16F (patch clamp); type: cell-based; conditions: overexpressed TMEM16F; niclosamide 1 μM
T1 construct: expressed in transfected cells; host or cells: HEK293 cells
T1 sequence (Q4KMQ2 1-910): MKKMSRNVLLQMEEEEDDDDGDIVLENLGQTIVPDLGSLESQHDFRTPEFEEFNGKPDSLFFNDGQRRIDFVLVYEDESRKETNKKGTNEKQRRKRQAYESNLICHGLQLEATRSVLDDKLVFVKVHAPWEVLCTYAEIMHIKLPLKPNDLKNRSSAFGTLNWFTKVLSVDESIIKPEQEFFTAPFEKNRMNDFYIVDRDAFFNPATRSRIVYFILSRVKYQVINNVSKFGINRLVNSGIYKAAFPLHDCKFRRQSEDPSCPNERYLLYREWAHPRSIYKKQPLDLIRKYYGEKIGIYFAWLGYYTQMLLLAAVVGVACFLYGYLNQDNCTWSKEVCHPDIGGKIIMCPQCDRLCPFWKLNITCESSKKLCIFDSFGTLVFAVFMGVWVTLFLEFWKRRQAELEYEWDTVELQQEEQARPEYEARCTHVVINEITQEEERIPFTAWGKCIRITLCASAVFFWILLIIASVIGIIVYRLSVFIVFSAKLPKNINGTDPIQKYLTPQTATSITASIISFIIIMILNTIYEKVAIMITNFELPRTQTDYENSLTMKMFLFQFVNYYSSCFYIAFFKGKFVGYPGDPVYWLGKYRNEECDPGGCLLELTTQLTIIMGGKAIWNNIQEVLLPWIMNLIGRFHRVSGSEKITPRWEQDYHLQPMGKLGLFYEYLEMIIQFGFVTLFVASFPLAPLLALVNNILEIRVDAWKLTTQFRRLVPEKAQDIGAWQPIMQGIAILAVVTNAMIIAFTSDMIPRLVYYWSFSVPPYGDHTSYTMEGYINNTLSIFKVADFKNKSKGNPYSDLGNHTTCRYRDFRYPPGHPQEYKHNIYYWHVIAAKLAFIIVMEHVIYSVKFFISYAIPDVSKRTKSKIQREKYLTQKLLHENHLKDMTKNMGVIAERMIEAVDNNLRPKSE
Experimental: FIG. 14: The TMEM16-inhibitor niflumic acid attenuates inflammatory airway disease. • A,B) OVA-sensitization induced pronounced goblet cell metaplasia as indicated by alcian blue positivity. Exposure to carbachol (CCH, 25 mg/ml, nebulizer) induced release of mucus and airway […]. Bars indicate […]. […] Mean±SEM; *significant inhibition by NFA (paired ttest). # significant difference when compared to OVA (unpaired t-test). (n) number of airways analysed or number of cells examined.
FIG. 15: Inhibition of TMEM16A and TMEM16F by niclosamide. • A) TMEM16A whole cell currents in overexpressing HEK293 cells. […]
OVA-induced allergic airway inflammation in mice caused pronounced airway goblet cell metaplasia. […] The two main TMEM16 paralogs expressed in airway epithelial and smooth muscle cells, TMEM16A and TMEM16F, were expressed in HEK293 cells and the whole cell currents upon activation by the Ca^2+ ionophore ionomycin (Iono) were measured. […]
Similar to TMEM16A, also overexpressed TMEM16F was inhibited by niclosamide (FIG. 15D). […] TMEM16A was activated by ionomycin and TMEM16A currents were measured as iodide quenching.

For `O=C(Nc1ccc([N+](=O)[O-])cc1Cl)c1cc(Cl)ccc1O` [niclosamide, 5-chloro-N-(2-chloro-4-nitrophenyl)-2-hydroxybenzamide], the IL-8 release [1] was “clearly inhibited” and the “TMEM16F current (current/voltage relationship)” value [2] was “inhibited; also recorded: inhibition”.
